Data as given in PubChem BioAssay (NCI).
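In this assay, cells in 96-well plates receive the compound at five concentrations for 48 hours. Endpoints are linearly interpolated between the surrounding concentrations. TGI is the concentration that stops growth completely.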

Experiments:
Assay in all cases: NCI-60 cell line screen, 48 h
[1] = tested on: T-47D breast
[2] = tested on: MCF7 breast
[3] = tested on: OVCAR-5 ovarian
[4] = tested on: HOP-92 NSCLC
[5] = tested on: HOP-62 NSCLC
[6] = tested on: ACHN renal
[7] = tested on: CCRF-CEM leukemia
[8] = tested on: M14 melanoma
[9] = tested on: EKVX NSCLC
[10] = tested on: HL-60(TB) leukemia
[11] = tested on: MDA-MB-231 breast
[12] = tested on: NCI-H522 lung
[13] = tested on: SK-MEL-28 melanoma
[14] = tested on: K-562 leukemia
[15] = tested on: UACC-62 melanoma
[16] = tested on: MDA-N
[17] = tested on: 786-0 renal
[18] = tested on: DU-145 prostate
[19] = tested on: SK-MEL-2 melanoma
[20] = tested on: UACC-257 melanoma

Structure (SMILES)	TGI [1] [µM]	TGI [2] [µM]	TGI [3] [µM]	TGI [4] [µM]	TGI [5] [µM]	TGI [6] [µM]	TGI [7] [µM]	TGI [8] [µM]	TGI [9] [µM]	TGI [10] [µM]	TGI [11] [µM]	TGI [12] [µM]	TGI [13] [µM]	TGI [14] [µM]	TGI [15] [µM]	TGI [16] [µM]	TGI [17] [µM]	TGI [18] [µM]	TGI [19] [µM]	TGI [20] [µM]
Oc1[nH]c2ccccc2c1N=NC(=S)Nc1cccc(Cl)c1	> 100	> 100	> 100	70.3	42.5	28.8	31	24.7	> 100	49.6	52.3	77.6	> 100	50	29	> 100	27.6	> 100	89.6	75.5
COc1ccc(P2(=S)OC(C)(C)C(C)(C)O2)cc1	> 100	> 100	> 100	> 100	> 100	> 100	> 100	> 100	> 100	> 100	> 100	> 100	> 100	> 100	> 100	> 100	> 100	> 100	> 100	> 100
Fc1cc(-c2cc(-c3ccccc3)no2)c(Cl)cc1Cl	> 57.7	> 100	> 42.9	35.7	> 54.8	> 59.6	> 49.6	> 54.7	> 51.9	> 37.7	32.8	> 34.5	> 56.4	> 56.4	> 100	> 68.9	> 33.6	> 48.6	> 40.1	> 71.6
O=C(Oc1ccccn1)c1cc2cc(CCl)ccc2oc1=O	> 100	> 100	> 100	39.3	52.9	> 100	> 100	> 100	> 100	> 100	46.6	30.3	> 100	> 100	85.6	> 100	39.6	> 100	> 100	> 100
